Assay results taken from patent US20110129932A1, “Lipoprotein Assay” (L3 TECHNOLOGY LIMITED, priority 2006, published 2011).
Each block holds one compound with its values, some of them ahead of it.

Key:
[1] = target: T1, Human Serum Albumin (HSA) (Homo sapiens, UniProt P02768); test: Nile Red fluorescence bound to HSA with and without octanoate (Example 5); type: binding
Protocol: (§1) The dye K-37 was added at a concentration of 0.5 mM to LDL at a total lipid concentration of 5 mM, in the presence and absence of 50 mg/ml HSA. Measurements were made with and without the addition of 0.1 M sodium octanoate, which acted as a ligand binding inhibitor.
Following the findings described in Example 4, concerning the addition of octanoate to block the hydrophobic binding sites of HSA, the inventors then observed that Nile Red also binds to HSA and fluoresces. This additional fluorescence of Nile Red when bound to HSA also causes a substantial background signal, which distorts and thereby causes significant errors in the measurement of HDL. They therefore decided to block the hydrophobic binding sites in HSA with the same ligand binding inhibitor as for K-37 blocking, i.e. sodium octanoate. The experiments conducted with Nile Red and HSA, were based on those discussed in Example 4, and all using 0.5 mM Nile Red.

[2] = target: T1, Human Serum Albumin (HSA); test: K-37 fluorescence bound to HSA with and without octanoate (Example 4); type: binding
Protocol: as §1

[3] = Excitation and emission maxima of the dyes; type: physicochemical
[4] = target: drug binding domain of HSA (Homo sapiens, UniProt P02768); test: Blocking the drug binding domain of HSA in the HDL/Nile red assay
From the text: This led the inventors to realise that the HDL/Nile red assay may be improved further by using an additional blocker. They tried agents that block the drug binding domain of HSA. […] The benzoic acid has the added bonus of quenching the Nile Red residual fluorescence in solution by about 20%.

T1 sequence (P02768 25-609): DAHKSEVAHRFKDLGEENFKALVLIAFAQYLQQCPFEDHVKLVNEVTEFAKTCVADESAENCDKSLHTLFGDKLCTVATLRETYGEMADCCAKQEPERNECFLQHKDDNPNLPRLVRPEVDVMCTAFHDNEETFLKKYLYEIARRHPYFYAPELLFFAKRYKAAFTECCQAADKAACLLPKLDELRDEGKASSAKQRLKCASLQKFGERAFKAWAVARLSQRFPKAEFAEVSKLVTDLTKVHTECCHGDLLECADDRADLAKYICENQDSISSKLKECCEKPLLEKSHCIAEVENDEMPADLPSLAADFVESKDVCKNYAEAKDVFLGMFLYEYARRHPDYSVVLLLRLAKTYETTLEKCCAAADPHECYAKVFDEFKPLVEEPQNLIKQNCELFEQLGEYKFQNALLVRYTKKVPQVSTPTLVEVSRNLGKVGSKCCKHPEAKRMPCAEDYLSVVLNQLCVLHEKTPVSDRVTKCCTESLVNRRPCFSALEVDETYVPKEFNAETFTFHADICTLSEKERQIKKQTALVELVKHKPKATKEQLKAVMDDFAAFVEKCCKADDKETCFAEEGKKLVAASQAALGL
Chain of drug binding domain of HSA (P02768 25-609): as above

Structure (SMILES): CCN(CC)c1ccc2nc3c4ccccc4c(=O)cc-3oc2c1 [Nile Red]
Fluorescence Intensity ([1]; 0.5 mM Nile Red plus 50 mg/ml HSA): 58.905 units | Fluorescence Intensity ([1]; 0.5 mM Nile Red plus 50 mg/ml HSA + 50 mM octanoate): 9.118 units

Fluorescence Intensity ([2]; 0.5 mM K-37 plus 50 mg/ml HSA): 79300 units | Fluorescence Intensity ([2]; 0.5 mM K-37 plus 50 mg/ml HSA + 0.1 M sodium octanoate): 3600 units
Structure (SMILES): CN(C)c1ccc(/C=C/C(=O)c2ccc(S(=O)(=O)C(F)F)cc2)cc1 [K-37, 4-dimethylamino-4′-difluoromethyl-sulphonyl-benzylidene-acetophenone]

Structure (SMILES): c1cc2ccc3cccc4ccc(c1)c2c34 [pyrene]
excitation maximum [3]: 320 nm

Structure (SMILES): O=C(O)c1ccccc1 [benzoic acid]
quenching of the Nile Red residual fluorescence in solution [4]: about 20% | displacement of Nile Red from HSA ([4]; at about 5 mM, without affecting the lipoprotein fluorescence): worked to displace the Nile Red from HSA
